Source: US20240391901A1, “SUBSTITUTED HETEROCYCLIC COMPOUND CONTAINING ALPHA-KETONE FRAMEWORK, AND USE THEREOF” (CHINA PHARMACEUTICAL UNIVERSITY, priority 2021, published 2024)
pIC50: −log10 of the molar value.

Columns and labels:
[1] = system: SD rats; assay: Open field test, chlorpromazine-induced depression model; format: in vivo; details: 6 mg/kg
Protocol: (§1) Male SD rats weighing between 180 g to 200 g were randomly divided into 6 groups, with 8 rats in each group, as follows: Normal group; Chlorpromazine group; Positive control group (Amitriptyline, 6 mg/kg); I-11 low dose group (3 mg/kg); I-11 medium dose group (6 mg/kg); I-11 high dose group (12 mg/kg); In the normal group, rats were maintained under normal conditions. In other groups, rats were intraperitoneally injected with chlorpromazine (0.2 mg/kg) once a day for three days to induce the model. After successful modeling, the respective drugs were administered according to the group. After two weeks of continuous administration, sucrose consumption test, open field test, and forced swimming test were conducted sequentially. After the sucrose preference test, we conducted an open field test on the experimental animals.

[2] = system: SD rats; assay: Forced swimming test, chlorpromazine-induced depression model; format: in vivo
Protocol: as §1, with “sequentially.” for “sequentially. After the sucrose preference test, we conducted an open field test on the experimental animals.”

[3] = system: SD rats; assay: Sucrose preference test, chlorpromazine-induced depression model; format: in vivo
Protocol: Male SD rats weighing between 180 g to 200 g were randomly divided into 6 groups, with 8 rats in each group, as follows: Normal group; Chlorpromazine group; Positive control group (Amitriptyline, 6 mg/kg); I-11 low dose group (3 mg/kg); I-11 medium dose group (6 mg/kg); I-11 high dose group (12 mg/kg); In the normal group, rats were maintained under normal conditions. In other groups, rats were intraperitoneally injected with chlorpromazine (0.2 mg/kg) once a day for three days to induce the model. After successful modeling, the respective drugs were administered according to the group. After two weeks of continuous administration, sucrose consumption test, open field test, and forced swimming test were conducted sequentially. The American Psychiatric Association considers a significant feature of depression to be the decrease in reward responsiveness, indicating a loss of pleasure. The sucrose preference test is a well-established measure for assessing reward responsiveness in experimental animals.

[4] = target: T1, FAAH (Homo sapiens, UniProt O00519); assay: In vitro FAAH enzyme inhibition activity assay (FAAH assay kit, fluorescently labeled substrate); format: biochemical
T1 construct: purchased
T1 sequence (O00519 1-579): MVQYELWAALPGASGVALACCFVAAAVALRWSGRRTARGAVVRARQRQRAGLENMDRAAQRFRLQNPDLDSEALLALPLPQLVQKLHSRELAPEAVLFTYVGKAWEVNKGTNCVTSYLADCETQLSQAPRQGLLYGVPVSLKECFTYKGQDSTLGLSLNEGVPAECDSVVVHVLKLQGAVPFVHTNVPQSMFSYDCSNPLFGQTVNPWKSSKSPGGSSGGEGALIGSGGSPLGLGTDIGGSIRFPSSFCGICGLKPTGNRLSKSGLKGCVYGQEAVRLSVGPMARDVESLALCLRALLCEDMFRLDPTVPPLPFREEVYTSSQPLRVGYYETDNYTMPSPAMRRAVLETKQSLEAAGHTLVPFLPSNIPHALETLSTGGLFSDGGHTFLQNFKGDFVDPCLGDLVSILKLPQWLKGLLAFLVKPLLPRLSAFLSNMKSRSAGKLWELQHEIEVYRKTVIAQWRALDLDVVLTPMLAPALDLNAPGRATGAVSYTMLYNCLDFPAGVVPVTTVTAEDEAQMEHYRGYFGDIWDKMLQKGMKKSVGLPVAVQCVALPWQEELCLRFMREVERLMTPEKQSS
Protocol: FAAH hydrolyzes AEA to form ethanolamine within cells. Different enzyme activities catalyze the formation of varying amounts of products from a fixed amount of substrate. The enzyme activity level can be assessed by measuring the amount of products generated. Based on this principle, experiments were designed in this invention. According to the FAAH assay kit instructions, a certain concentration of FAAH was diluted and added to a buffer solution along with a fluorescently labeled substrate. Compounds of various concentrations were then added, along with blank control groups and JZL-195 positive control groups. After the reaction, fluorescence analysis was performed using a plate reader, and the inhibition rate was calculated.

[5] = system: mice; assay: Acetic acid writhing test in mice (analgesic activity); format: in vivo; details: 5 mg/kg s.c
Protocol: Using the acetic acid writhing test in mice as a pain model to evaluate the analgesic activity of compound I-11. The experimental animal information and procedures are outlined below.
Healthy ICR mice, of clean grade, weighing 20-25 g. The animal facility complies with the requirements of a clean laboratory, with a temperature of 20-22° C., humidity of 40%˜70%, and controlled lighting on a 12-hour light/12-hour dark cycle (lighting from 8:00 to 20:00). Mice are housed in plastic cages (280×150×180 mm) with 10 mice per cage, separated by gender, and provided ad libitum access to food and water. The diet consists of experimental rodent pellets, and the drinking water is city tap water sterilized by high-temperature autoclaving. Mice are allowed a 7-day acclimatization period. All procedures involving animals are conducted following the guidelines of the International Association for the Study of Pain Ethics Committee. Mice are housed in the animal facility upon purchase.
Glacial acetic acid and physiological saline were obtained from the China Pharmaceutical University reagent repository. Compound I-11 was a laboratory-synthesized compound (purity>98%).
Mice were marked with saturated bitter solution, with the left front limb marked as number 1, left hind limb as number 2, right front limb as number 3, right hind limb as number 4, and head as number 5. Combinations such as head with left front limb as number 6, head with left hind limb as number 7, head with right front limb as number 8, head with right hind limb as number 9, and tail as number 10 were used for identification. Animals were divided into groups, with n=10 in each group, evenly distributed between males and females.
The experiment employed the acetic acid-induced writhing test in mice to investigate the analgesic activity of the samples. […] The number of writhing movements and the latency period of mice were observed and recorded 15 minutes after acetic acid injection, and the analgesic percentage was calculated. […]

Row | Structure (SMILES) | pIC50 ([4]; values given in μm [sic]) | pIC50 ([4]; values in nm) | further results
1 | CN(C)CCC=C1c2ccccc2CCc2ccccc21 [Amitriptyline] | – | – | Frequency of grooming [1]: 4.3 ± 0.3 n; Frequency of upright [1]: 10.6 ± 2.2 n; Times passing the grid [1]: 58.9 ± 2.2 n; Total time in center [1]: 4.6 ± 0.6 s; immobility time versus model (in words) ([2]; Amitriptyline 6 mg/kg, I-11 medium and high dose, p<0.05): reduce the immobility time; Immobility Time ([2]; model rats, 6 mg/kg): 88.47 ± 4.64 s; sucrose intake compared to the model group (in words) ([3]; high-dose I-11 (12 mg/kg), amitriptyline 6 mg/kg): significant increase in sucrose intake; Sucrose intake ratio ([3]; model rats, 6 mg/kg, two weeks of administration): 78.6 ± 4.6 %
2 | Cn1c(C(=O)N2CCC(C(=O)c3ccncc3)CC2)cc2cc(Cl)ccc21 [Compound I-1] | 4.55 | – | –
3 | Cn1c(C(=O)N2CCC(C(=O)c3ccncc3)CC2)cc2ccccc21 [Compound I-2] | 4.85 | – | –
4 | Cn1c(C(=O)N2CCC(C(=O)c3ccccn3)CC2)cc2cc(Cl)ccc21 [Compound I-3] | 4.87 | – | –
5 | O=C(c1ccccn1)C1CCN(C(=O)c2cc3ccccc3o2)CC1 [Compound I-4, (1-(benzofuran-2-carbonyl)piperidin-4-yl)(pyridin-2-yl)methanone] | 5.00 | – | –
6 | O=C(c1ccccn1)C1CCN(C(=O)c2cnc3ccccc3c2)CC1 [Compound I-5] | 3.90 | – | –
7 | O=C(c1ccccn1)C1CCN(Cc2cnc3ccccc3c2)CC1 [Compound I-6, Pyridin-2-yl(1-(quinolin-3-ylmethyl)piperidin-4-yl)methanone] | 3.88 | – | –
8 | Cn1c(C(=O)N2CCC(C(=O)c3ncco3)CC2)cc2cc(Cl)ccc21 [Compound I-7, (5-Chloro-1-methyl-1H-indol-2-yl)(4-(oxazole-2-carbonyl)piperidin-1-yl) methanone] | – | 7.11 | –
9 | Cn1c(C(=O)N2CCC(C(=O)c3nccs3)CC2)cc2cc(Cl)ccc21 [Compound I-8, (5-chloro-1-methyl-1H-indol-2-yl)(4-(thiazol-2-carbonyl)piperidin-1-yl)methanone] | 5.99 | – | –
10 | Cn1c(C(=O)N2CCC(C(=O)c3nc4ccccc4s3)CC2)cc2cc(Cl)ccc21 [Compound I-9] | – | 6.55 | –
11 | Cn1c(C(=O)N2CCC(C(=O)c3ncc(-c4ccccc4)o3)CC2)cc2cc(Cl)ccc21 [Compound I-10, (5-chloro-1-methyl-1H-indol-2-yl)-(4-(5-phenyl-oxazol-2-carbonyl)piperidin-1-yl)methanone] | – | 6.95 | –
12 | Cn1c(C(=O)N2CCC(C(=O)c3nnc(-c4cccc(Cl)c4)o3)CC2)cc2cc(Cl)ccc21 [Compound I-13, (5-chloro-1-methyl-1H-indol-2-yl)(4-(5-(3-chlorophenyl)-1,3,4-oxadiazol-2-carbonyl)piperidin-1-yl)methanone] | – | 7.05 | –
13 | Cn1c(C(=O)N2CCC(C(=O)c3nnc(-c4ccco4)o3)CC2)cc2cc(Cl)ccc21 [Compound I-15, (5-chloro-1-methyl-1H-indol-2-yl)(4-(5-(furan-2-yl)-1,3,4-oxadiazol-2-carbonyl)piperidin-1-yl)methanone] | – | 8.51 | –
14 | Cn1c(C(=O)N2CCC(C(=O)c3nnc(-c4cccs4)o3)CC2)cc2cc(Cl)ccc21 [Compound I-16, (5-chloro-1-methyl-1H-indol-2-yl) (4-(5-(thiophene-2-yl)-1,3,4-oxadiazol-2-carbonyl)piperidin-1-yl)methanone] | – | 7.89 | –
15 | O=C(Oc1ccc([N+](=O)[O-])cc1)N1CCN(Cc2cccc(Oc3ccccc3)c2)CC1 [JZL-195, reference compound] | – | 8.55 | –
16 | CN1CC[C@]23c4c5ccc(O)c4O[C@H]2[C@@H](O)C=C[C@H]3[C@H]1C5 [Morphine] | – | – | Inhibition (analgesic percentage, writhing) [5]: 100.0%; latency period [5]: 0 s; writhing count ([5]; within 15 minutes after acetic acid): 0
